For 24 molecules, IC50 results are on record in patent publication US9765092B2, “Tricyclic piperidine compounds” (ACTELION PHARMACEUTICALS LTD, priority 2013, dated 2017).

For the test, the target named is human TPH1 (Homo sapiens (Human), UniProt P17752). Put plainly: Biochemical in vitro assay using fluorescence readout (TPH1 inhibition).
Setting [1] is: human TPH1, fluorescence readout.
[2] abbreviates: full length human TPH1, 40 μM L-tryptophan, 15° C., 60 minutes, fluorescence at 540 nm, mean if determined several times.

Each structure is given as a SMILES string.

Chain of human TPH1 (P17752 whole entry): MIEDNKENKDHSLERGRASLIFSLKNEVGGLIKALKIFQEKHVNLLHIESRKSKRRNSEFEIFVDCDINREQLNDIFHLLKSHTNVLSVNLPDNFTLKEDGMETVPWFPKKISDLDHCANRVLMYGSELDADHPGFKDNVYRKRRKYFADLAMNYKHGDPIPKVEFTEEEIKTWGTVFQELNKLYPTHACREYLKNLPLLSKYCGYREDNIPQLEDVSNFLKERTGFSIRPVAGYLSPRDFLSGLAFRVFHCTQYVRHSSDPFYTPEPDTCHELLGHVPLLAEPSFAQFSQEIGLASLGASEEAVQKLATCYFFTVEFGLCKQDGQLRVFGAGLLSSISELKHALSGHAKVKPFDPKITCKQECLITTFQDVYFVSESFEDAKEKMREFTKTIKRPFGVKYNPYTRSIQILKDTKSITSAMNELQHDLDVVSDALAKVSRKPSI

What is called IC50 is the point on the concentration scale where inhibition reaches its midpoint. Low readings indicate higher potency, high ones lower potency. Under setting [1], `CNS(=O)(=O)Nc1ccc(OCC(=O)N2CCc3nc4sc(C)nn4c3C2c2ccc(Cl)cc2F)c(Cl)n1` (stereo not drawn) [Example 1.4.52, N-(6-chloro-5-(2-(5-(4-chloro-2-fluorophenyl)-2-methyl-7,8-dihydro-[1,3,4]thiadiazolo[2′,3′:2,3]imidazo[4,5-c]pyridin-6(5H)-yl)-2-oxoethoxy)pyridin-2-yl)-N′-methyl-sulfamide] returned an IC50 of 38 nM. Under setting [2], `Cc1nn2c3c(nc2s1)CCN(C(=O)COc1ccc(N2CCC(F)(F)CC2)nc1Cl)C3c1ccc(Cl)cc1F` (stereo not drawn) [Example 1.4.32, 1-(5-(4-Chloro-2-fluorophenyl)-2-methyl-7,8-dihydro-[1,3,4]thiadiazolo[2′,3′:2,3]imidazo[4,5-c]pyridin-6(5H)-yl)-2-((2-chloro-6-(4,4-difluoropiperidin-1-yl)pyridin-3-yl)oxy)ethanone] yielded an IC50 of 3 nM. Under setting [1], `CN1CCN(c2ccc(OCC(=O)N3CCc4nc5sc(C6CC6)nn5c4C3c3ccc(Cl)cc3F)c(Cl)n2)CC1` (stereo not drawn) [Example 4.1.4, 1-(5-(4-chloro-2-fluorophenyl)-2-cyclopropyl-7,8-dihydro-[1,3,4]thiadiazolo[2′,3′:2,3]imidazo[4,5-c]pyridin-6(5H)-yl)-2-((2-chloro-6-(4-methylpiperazin-1-yl)pyridin-3-yl)oxy)ethanone] yielded an IC50 of 12 nM. The same measure, in the same setting: the figure for `Cc1nn2c3c(nc2s1)CCN(C(=O)COc1ccc(F)cc1Cl)C3c1ccc(C2CC2)cc1F` (stereo not drawn) [Example 1.6.2, 2-(2-chloro-4-fluorophenoxy)-1-(5-(4-cyclopropyl-2-fluorophenyl)-2-methyl-7,8-dihydro-[1,3,4]thiadiazolo [2′,3′:2,3]imidazo[4,5-c]pyridin-6(5H)-yl)ethanone] is 10 nM; for `CNC(=O)c1cc(F)c(C2c3c(nc4sc(C)nn34)CCN2C(=O)COc2ccc(N3CC(F)(F)C3)nc2Cl)s1` (stereo not drawn) [Example 1.25.5, 5-(6-(2-((2-chloro-6-(3,3-difluoroazetidin-1-yl)pyridin-3-yl)oxy)acetyl)-2-methyl-5,6,7,8-tetrahydro-[1,3,4]thiadiazolo [2′,3′:2,3]imidazo[4,5-c]pyridin-5-yl)-4-fluoro-N-methylthiophene-2-carboxamide] it is 7 nM. Take `Cc1nn2c3c(nc2s1)CCN(C(=O)COc1ccc(C(=O)N(C)C)nc1Cl)C3c1ncccc1F` (stereo not drawn) [Example 1.35.2, 6-chloro-5-(2-(5-(3-fluoropyridin-2-yl)-2-methyl-7,8-dihydro-[1,3,4]thiadiazolo[2′,3′:2,3]imidazo[4,5-c]pyridin-6(5H)-yl)-2-oxoethoxy)-N,N-dimethylpicolinamide]: the midpoint of inhibition under setting [1], the IC50, lay at 45 nM.

For the molecule `Cc1nn2c3c(nc2s1)CCN(C(=O)COc1ccc(N2CCOCC2)nc1Cl)C3c1cc(-c2nn[nH]n2)cs1` (stereo not drawn) [Example 1.63.1, 1-(5-(4-(2H-Tetrazol-5-yl)thiophen-2-yl)-2-methyl-7,8-dihydro-[1,3,4]-thiadiazolo-[2′,3′:2,3]imidazo[4,5-c]pyridin-6(5H)-yl)-2-((2-chloro-6-morpholinopyridin-3-yl)oxy)ethanone], under setting [2], the half-maximal inhibitory concentration (IC50) was 23 nM. The molecule `Cc1nn2c3c(nc2s1)CCN(C(=O)COc1ccc(C(=O)N(C)C)nc1Cl)C3c1ccc(C(F)(F)F)cc1F` (stereo not drawn) [Example 1.56.1, 6-chloro-5-(2-(5-(2-fluoro-4-(trifluoromethyl)phenyl)-2-methyl-7,8-dihydro-[1,3,4]thiadiazolo[2′,3′:2,3]imidazo[4,5-c]pyridin-6(5H)-yl)-2-oxoethoxy)-N,N-dimethylpicolinamide] displayed an IC50 under setting [1] of 15 nM. Still for that read-out and setting: the figure for `Cc1nn2c3c(nc2s1)CCN(C(=O)COc1cc(F)cnc1Cl)C3c1ncc(C2CC2)cc1F` (stereo not drawn) [Example 1.14.7, 2-((2-chloro-5-fluoropyridin-3-yl)oxy)-1-(5-(5-cyclopropyl-3-fluoropyridin-2-yl)-2-methyl-7,8-dihydro-[1,3,4]thiadiazolo [2′,3′:2,3]imidazo[4,5-c]pyridin-6(5H)-yl)ethanone] is 25 nM.

Under setting [1], `Cc1nn2c3c(nc2s1)CCN(C(=O)COc1ccc(C(=O)N(C)C)nc1Cl)C3c1cc(F)ccc1F` (stereo not drawn) [Example 1.57.1, 6-chloro-5-(2-(5-(2,5-difluorophenyl)-2-methyl-7,8-dihydro-[1,3,4]thiadiazolo[2′,3′:2,3]imidazo[4,5-c]pyridine-6(5H)-yl)-2-oxoethoxy)-N,N-dimethylpicolinamide] came in with an IC50 of 30 nM. With `CCOC(=O)c1coc(C2c3c(nc4sc(C)nn34)CCN2C(=O)COc2ccc(N3CCOCC3)nc2Cl)n1` (stereo not drawn) [Example 1.29.1, Ethyl 2-(6-(2-((2-chloro-6-morpholinopyridin-3-yl)oxy)acetyl)-2-methyl-5,6,7,8-tetrahydro-[1,3,4]thiadiazolo [2′,3′:2,3]imidazo[4,5-c]pyridin-5-yl)oxazole-4-carboxylate], under setting [1], half-maximal inhibition (IC50) was put at 20 nM. Still for that read-out and setting: with `CNC(=O)c1ccc(OCC(=O)N2CCc3nc4sc(C)nn4c3C2c2sccc2F)c(Cl)n1` (stereo not drawn) [Example 1.23.10, 6-chloro-5-(2-(5-(3-fluorothiophen-2-yl)-2-methyl-7,8-dihydro-[1,3,4]thiadiazolo[2′,3′:2,3]imidazo[4,5-c]pyridin-6(5H)-yl)-2-oxoethoxy)-N-methylpicolinamide] the figure was 9 nM. Same read-out and setting: the figure for `CCn1nc(C(=O)OC)cc1OCC(=O)N1CCc2nc3sc(C)nn3c2C1c1sccc1F` (stereo not drawn) [Example 1.23.12, Methyl 1-ethyl-5-(2-(5-(3-fluorothiophen-2-yl)-2-methyl-7,8-dihydro-[1,3,4]thiadiazolo[2′,3′:2,3]imidazo[4,5-c]pyridin-6(5H)-yl)-2-oxoethoxy)-1H-pyrazole-3-carboxylate] is 265 nM. As for `Cc1nn2c3c(nc2s1)CCN(C(=O)COc1ccc(C(N)=O)cc1Cl)C3c1ccc(Cl)cc1F` (stereo not drawn) [Example 1.4.26, 3-Chloro-4-(2-(5-(4-chloro-2-fluorophenyl)-2-methyl-7,8-dihydro-[1,3,4]thiadiazolo[2′,3′:2,3]imidazo[4,5-c]pyridin-6(5H)-yl)-2-oxoethoxy)benzamide], inhibition under setting [2] was half-maximal at 10 nM (IC50). Still for that read-out and setting: the figure for `Cc1nn2c3c(nc2s1)CCN(C(=O)COc1cc(F)cnc1Cl)C3c1cnc(N(C)C)s1` (stereo not drawn) [Example 1.22.4, 2-((2-Chloro-5-fluoropyridin-3-yl)oxy)-1-(5-(2-(dimethylamino)thiazol-5-yl)-2-methyl-7,8-dihydro-[1,3,4]thiadiazolo[2′,3′:2,3]imidazo[4,5-c]pyridin-6(5H)-yl)ethanone] is 79 nM. With `Cc1nn2c3c(nc2s1)CCN(C(=O)COc1ccc(C#N)nc1Cl)C3c1sc(C(=O)N(C)C)cc1F` (stereo not drawn) [Example 1.24.4, 5-(6-(2-((2-chloro-6-cyanopyridin-3-yl)oxy)acetyl)-2-methyl-5,6,7,8-tetrahydro-[1,3,4]thiadiazolo[2′,3′:2,3]imidazo[4,5-c]pyridin-5-yl)-4-fluoro-N,N-dimethylthiophene-2-carboxamide], under setting [1], inhibition was half-maximal at 46 nM (IC50).

In turn, `Cc1nn2c3c(nc2s1)CCN(C(=O)COc1ccc(C(=O)N(C)C)nc1Cl)C3c1cnc(-c2ccccc2)s1` (stereo not drawn) [Example 1.60.1, 6-chloro-N,N-dimethyl-5-(2-(2-methyl-5-(2-phenylthiazol-5-yl)-7,8-dihydro-[1,3,4]thiadiazolo[2′,3′:2,3]imidazo[4,5-c]pyridin-6(5H)-yl)-2-oxoethoxy)picolinamide] returned an IC50 under setting [1] of 14 nM.

Under setting [1], `Cc1nc(C)c(C2c3c(nc4sc(C)nn34)CCN2C(=O)COc2ccc(N3CCCS3(=O)=O)nc2Cl)s1` (stereo not drawn) [Example 1.68.5, 2-((2-chloro-6-(1,1-dioxidoisothiazolidin-2-yl)pyridin-3-yl)oxy)-1-(5-(2,4-dimethylthiazol-5-yl)-2-methyl-7,8-dihydro-[1,3,4]thiadiazolo[2′,3′:2,3]imidazo[4,5-c]pyridin-6(5H)-yl)ethanone] had an IC50 of 5 nM. Still for that read-out and setting: the figure for `COc1ccc(C2c3c(nc4sccn34)CCN2C(=O)COc2ccc3ccncc3c2)c(F)c1` (stereo not drawn) [Example 6.3.3, 1-(5-(2-fluoro-4-methoxyphenyl)-7,8-dihydrothiazolo[2′,3′:2,3]imidazo[4,5-c]pyridin-6(5H)-yl)-2-(isoquinolin-7-yloxy)ethanone] is 4 nM; for `Cc1cnc(C2c3c(nc4sc(C)nn34)CCN2C(=O)COc2ccc(NS(=O)(=O)C3CC3)nc2Cl)c(F)c1` (stereo not drawn) [Example 1.31.9, N-(6-chloro-5-(2-(5-(3-fluoro-5-methylpyridin-2-yl)-2-methyl-7,8-dihydro-[1,3,4]thiadiazolo[2′,3′:2,3]imidazo[4,5-c]pyridin-6(5H)-yl)-2-oxoethoxy)pyridin-2-yl)cyclopropanesulfonamide] it is 21 nM; for `Cc1nn2c3c(nc2s1)CCN(C(=O)COc1ccc(C(=O)N(C)C)nc1Cl)C3c1sccc1F` (stereo not drawn) [Example 1.23.6, 6-chloro-5-(2-(5-(3-fluorothiophen-2-yl)-2-methyl-7,8-dihydro-[1,3,4]thiadiazolo[2′,3′:2,3]imidazo[4,5-c]pyridin-6(5H)-yl)-2-oxoethoxy)-N,N-dimethylpicolinamide] it is 5 nM. `O=C(COc1ccc(C(F)(F)F)nc1Cl)N1CCc2nc3sccn3c2C1c1ncc(C2CC2)cc1F` (stereo not drawn) [Example 6.7.1, 2-((2-chloro-6-(trifluoromethyl)pyridin-3-yl)oxy)-1-(5-(5-cyclopropyl-3-fluoropyridin-2-yl)-7,8-dihydrothiazolo-[2′,3′:2,3]imidazo[4,5-c]pyridin-6(5H)-yl)ethanone] came in with an IC50 under setting [1] of 11 nM. Consider `COc1nc(NS(C)(=O)=O)ccc1OCC(=O)N1CCc2nc3sc(C)nn3c2[C@@H]1c1ncc(C)cc1F` [Example 1.31.20, (R)-N-(5-(2-(5-(3-fluoro-5-methylpyridin-2-yl)-2-methyl-7,8-dihydro-[1,3,4]thiadiazolo[2′,3′:2,3]imidazo[4,5-c]pyridin-6(5H)-yl)-2-oxoethoxy)-6-methoxypyridin-2-yl)methanesulfonamide], for which the IC50 under setting [1] came out at 77 nM. Still for that read-out and setting: the figure for `Cc1nn2c3c(nc2s1)CCN(C(=O)C(C)(C)Oc1ccc(C(=O)N(C)C)nc1Cl)C3c1ccc(Cl)cc1F` (stereo not drawn) [Example 1.4.58, 6-chloro-5-((1-(5-(4-chloro-2-fluorophenyl)-2-methyl-7,8-dihydro-[1,3,4]thiadiazolo[2′,3′:2,3]imidazo[4,5-c]pyridin-6(5H)-yl)-2-methyl-1-oxopropan-2-yl)oxy)-N,N-dimethylpicolinamide] is 55 nM.
